The results in this text go back to US11806441B2, “Viscoelastic hydrogels with fast stress relaxation” (President and Fellows of Harvard College, priority 2014, dated 2023).

The test has as its system U2OS cells. The test is described as follows: U2OS cells plated on 2D alginate substrates: spreading, YAP localization, proliferation. Conditions: 10 μM, initial Young's modulus 1.4 kPa, RGD 1500. It is filed as cell-based, human. The method, then:
Plating of cells on gels. 1 mm thick alginate hydrogels were prepared as previously described (Zhao et al. J. Appl. Phys. 107, 63509 (2010); and Huebsch et al. Nat Mater 9, 518-526 (2010)). Following gelation, 15 mm disks were punched out, and these disks were washed thoroughly 4 times over 2 days in serum free media to remove any excess calcium. […] Cells were allowed to spread for 20 hours, and then were fixed and stained for analysis. Only isolated cells, without any cell-cell contacts, were analyzed. Immunohistochemistry. For immunohistochemical staining, media was first removed from the gels. The gels were then fixed with 4% paraformaldehyde in serum free DMEM at 37° C. for 30-45 minutes. Gels were then washed 3 times in PBS containing calcium (cPBS). Gels from 3D studies were then incubated overnight in 30% sucrose in cPBS at 4° C. […] Images of all single cells were then thresholded manually based on the actin stain, and the area of the thresholded cell body was determined using a custom macro in ImageJ (NIH). […] The YAP nuclear localization ratio was then determined as the summed intensity of the YAP signal within the nucleus normalized by the nuclear area divided by the summed intensity of the YAP signal outside of the nucleus normalized by the non-nuclear cytoskeleton area.

As to `C[C@@H](N)[C@H]1CC[C@H](C(=O)Nc2ccncc2)CC1` [Y-27632], the “effect on increased cell spreading on stress relaxing substrate” value is given as “abrogated the increased cell spreading”.
